IC50 and GI50 data for ten compounds are collected here from patent US12679836B2, “4H-pyrrolo[3,2-c]pyridin-4-one compounds” (Bayer Aktiengesellschaft, priority 2019, dated 2026).

Where “and” joins values, the source holds several entries; their conditions need not be identical. Equal entries are not always repeated.

Assay type in all cases: cell-based
One experiment relates to PC9 cells (EGFRex19del). Nature of the experiment: PC9 proliferation assay (Cell Titer Glo). As to conditions: Homo sapiens, PC-9, 72 h. Here is the method:
Cellular Data Description (PC9 Cells, EGFRex19del)
(§1) PC9 cells were purchased from ATCC. 400 PC9 cells per well were seeded in growth medium (DMEM, 10% FCS) in a 384-well plate (CORNING #3571). Seed reference plate for time zero determination on the same day. All plates were incubated overnight at 37° C. After 24 hours, test compound were added in 7-step dilution using HP Compound printer and incubated at 37° C. for 72 h. After 3 days, 30 μL/well CTG solution (Promega Cell Titer Glo solution; catalog # G755B and G756B) were added to each well, incubated for 30 minutes and the plate were read on PheraStar. Proliferation is calculated after subtracting time zero luminescence values from day 4 values and comparing to untreated wells. The IC50 values were determined using the four parameter fit.

For experiment [1], the target named is Ba/F3-EGFR-D770_N771 insSVD C797S cells (Homo sapiens, UniProt P00533, DUP768-770/C797S, cells depend on it). Nature of the experiment: Ba/F3 cell survival assay, EGFR D770_N771insSVD C797S. As to conditions: without IL-3, without EGF, 48 h; read-out: BA/F3 (EGFR 0770_N771 insSVD C797S) IC50. The protocol:
(§2) 293T cells from ATCC were transfected with pBABEpuro expression constructs for mutant EGFR (V769_D770insASV, D770_N771insNPG, N771_P772insH, H773_V774insNPH, E746_A750del, L858R, D770_N771insSVD C797S, E746_A750del C797S, L858R C797S, L861Q) or mutant ERBB2 (A775_G776insYVMA) and pCL-Eco packaging vector using Fugene-6 transfection reagent from Promega. Plates were incubated at 37° C. for 48 h. Retrovirus was harvested by filtering the media supernatant through a 0.45 μm filter.
(§3) Ba/F3 cells purchased from DSMZ were grown in RPMI+10% FBS+10 ng/mL IL-3 and infected with filtered retroviral supernatant at a 1:2 dilution. Polybrene was added to a concentration of 8 μg/mL, plates were spun for 90 min, and incubated overnight at 37° C. 2 μg/mL puromycin was added to the infected cells 24 h after infection and cells were continually grown in the presence of puromycin and 10 ng/mL IL-3. Following stably expressing Ba/F3 cell lines were generated: Ba/F3-EGFR-V769_D770insASV, Ba/F3-EGFR-D770_N771insNPG, Ba/F3-EGFR-N771_P772insH, Ba/F3-EGFR-H773_V774insNPH, Ba/F3-EGFR-E746_A750del, Ba/F3-EGFR-L858R, Ba/F3-EGFR-D770_N771 insSVD C797S, Ba/F3-EGFR-E746_A750del C797S, Ba/F3-EGFR-L858R C797S, Ba/F3-EGFR L861Q and Ba/F3-ERBB2-A775_G776insYVMA (Ba/F3-vector-control).
(§4) For cell survival assays, Ba/F3 cells were grown to a density of 1-2 million cells per mL, spun down and resuspended in media without IL-3, and replated at a concentration 200,000-500,000 cells per mL. The cells ectopically expressing WT EGFR plated with 10 ng/mL Millipore Culture grade EGF and Ba/F3 cells containing mutant EGFR or Mutant ERBB2 were cultivated without EGF. The cells ectopically expressing pBABEpuro empty vector were plated with 10 ng/mL IL-3.
(§5) 2 days later, cells were plated in 50 μL in a 384 well plate at a concentration of 4000 cells per well for cells assayed in the absence of IL-3 and 2000 cells per well for cells assayed in the presence of IL-3. 100 nL of compound was added to each well using a 100 nL pin head, and plates were incubated at 37° C. for 48 h.
(§6) Cell viability was measured by adding 20 μL of Cell Titer-Glo Luminescent Cell Viability Reagent diluted 1:3 in PBS. Plates were sealed with Perkin Elmer Top-Seal, inverted several times to mix, and immediately centrifuged at 1000 rpm for 2 min. Plates were incubated in low light conditions for 8-10 min and luminescence was measured.

In another experiment the target is Ba/F3-EGFR-L858R cells (Homo sapiens, UniProt P00533, L858R, cells depend on it). Nature of the experiment: Ba/F3 cell survival assay, EGFR L858R. As to conditions: without IL-3, without EGF, 48 h; read-out: BA/F3 (EGFR L858R) IC50. Here is the method:
as §2, §3, §4, §5, §6

Experiment [2] has as its target Ba/F3-EGFR-E746_A750del C797S cells (Homo sapiens, UniProt P00533, DEL746-750/C797S, cells depend on it). Nature of the experiment: Ba/F3 cell survival assay, EGFR E746_A750del C797S. As to conditions: without IL-3, without EGF, 48 h; read-out: BA/F3 (EGFR E746_A750del C797S) IC50. The protocol: as §2, §3, §4, §5, §6
Experiment [3] has as its target Ba/F3-EGFR-E746_A750del cells (Homo sapiens, UniProt P00533, DEL746-750, cells depend on it). Nature of the experiment: Ba/F3 cell survival assay, EGFR E746_A750del. As to conditions: without IL-3, without EGF, 48 h; read-out: BA/F3 (EGFR E746_A750del) IC50. Here is the method:
as §2, §3, §4, §5, §6

Experiment [4] concerns HCC-827 cells (EGFRex19del). Nature of the experiment: HCC-827 proliferation assay (Cell Titer Glo). As to conditions: Homo sapiens, HCC827, 72 h. The protocol: Cellular Data Description (HCC-827 Cells, EGFRex19del)
as §1, with “HCC-827 cells” for “PC9 cells”, “[…]” for “400 PC9”, “medium (RPM11640,” for “medium (DMEM,”, “wells.” for “wells. The IC50 values were determined using the four parameter fit.”
The IC50 values were determined using the four parameter fit.
For orientation: ATP-based viability assays read luminescence as a measure of living cells.

The next experiment has as its target Ba/F3-EGFR L861Q cells (Homo sapiens, UniProt P00533, L861Q, cells depend on it). Nature of the experiment: Ba/F3 cell survival assay, EGFR L861Q. As to conditions: without IL-3, without EGF, 48 h; read-out: BA/F3 (EGFR L861Q) IC50. Here is the method: as §2, §3, §4, §5, §6
In experiment [5] the target is Ba/F3-ERBB2-A775_G776insYVMA cells (Homo sapiens, UniProt P04626, DUP772-775, cells depend on it). Nature of the experiment: Ba/F3 cell survival assay, ERBB2 A775_G776insYVMA. As to conditions: without IL-3, without EGF, 48 h; read-out: BA/F3 (ERBB2 A775_G776 insYVMA) IC50. The protocol:
as §2, §3, §4, §5, §6

Sequence of Ba/F3-ERBB2-A775_G776insYVMA cells (P04626 with tags, fused parts or gaps DUP772-775): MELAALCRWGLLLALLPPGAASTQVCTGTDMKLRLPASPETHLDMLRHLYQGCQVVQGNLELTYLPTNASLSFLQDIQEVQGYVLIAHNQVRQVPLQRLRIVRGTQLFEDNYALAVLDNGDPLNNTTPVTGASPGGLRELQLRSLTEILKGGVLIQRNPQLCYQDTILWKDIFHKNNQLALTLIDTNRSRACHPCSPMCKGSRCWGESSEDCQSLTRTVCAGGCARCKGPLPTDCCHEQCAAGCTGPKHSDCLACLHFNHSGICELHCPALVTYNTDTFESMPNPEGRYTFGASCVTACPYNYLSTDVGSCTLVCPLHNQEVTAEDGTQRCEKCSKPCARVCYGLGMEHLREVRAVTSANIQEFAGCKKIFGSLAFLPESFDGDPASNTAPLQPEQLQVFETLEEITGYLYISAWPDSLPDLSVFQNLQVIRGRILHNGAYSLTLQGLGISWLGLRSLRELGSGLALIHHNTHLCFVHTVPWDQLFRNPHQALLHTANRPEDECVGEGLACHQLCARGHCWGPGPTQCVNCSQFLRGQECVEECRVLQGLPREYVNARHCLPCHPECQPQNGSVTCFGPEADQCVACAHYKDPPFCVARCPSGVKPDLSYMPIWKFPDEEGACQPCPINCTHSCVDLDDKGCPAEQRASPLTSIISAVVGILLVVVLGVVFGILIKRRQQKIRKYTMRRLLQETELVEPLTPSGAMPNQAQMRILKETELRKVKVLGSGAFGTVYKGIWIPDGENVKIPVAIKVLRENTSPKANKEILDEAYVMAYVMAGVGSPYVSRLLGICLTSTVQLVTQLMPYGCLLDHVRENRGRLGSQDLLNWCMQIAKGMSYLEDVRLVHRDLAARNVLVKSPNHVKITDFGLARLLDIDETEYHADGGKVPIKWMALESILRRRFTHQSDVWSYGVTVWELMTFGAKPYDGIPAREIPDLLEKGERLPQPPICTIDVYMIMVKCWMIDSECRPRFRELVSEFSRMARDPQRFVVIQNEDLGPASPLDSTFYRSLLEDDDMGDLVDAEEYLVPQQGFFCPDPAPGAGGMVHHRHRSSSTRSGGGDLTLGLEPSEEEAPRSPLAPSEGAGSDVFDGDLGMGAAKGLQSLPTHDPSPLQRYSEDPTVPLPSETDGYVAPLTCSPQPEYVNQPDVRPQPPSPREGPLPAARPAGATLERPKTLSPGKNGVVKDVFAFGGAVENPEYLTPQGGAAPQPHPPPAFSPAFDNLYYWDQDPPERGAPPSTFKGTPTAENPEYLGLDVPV
Sequence of Ba/F3-EGFR-D770_N771 insSVD C797S cells (P00533 with tags, fused parts or gaps DUP768-770/C797S): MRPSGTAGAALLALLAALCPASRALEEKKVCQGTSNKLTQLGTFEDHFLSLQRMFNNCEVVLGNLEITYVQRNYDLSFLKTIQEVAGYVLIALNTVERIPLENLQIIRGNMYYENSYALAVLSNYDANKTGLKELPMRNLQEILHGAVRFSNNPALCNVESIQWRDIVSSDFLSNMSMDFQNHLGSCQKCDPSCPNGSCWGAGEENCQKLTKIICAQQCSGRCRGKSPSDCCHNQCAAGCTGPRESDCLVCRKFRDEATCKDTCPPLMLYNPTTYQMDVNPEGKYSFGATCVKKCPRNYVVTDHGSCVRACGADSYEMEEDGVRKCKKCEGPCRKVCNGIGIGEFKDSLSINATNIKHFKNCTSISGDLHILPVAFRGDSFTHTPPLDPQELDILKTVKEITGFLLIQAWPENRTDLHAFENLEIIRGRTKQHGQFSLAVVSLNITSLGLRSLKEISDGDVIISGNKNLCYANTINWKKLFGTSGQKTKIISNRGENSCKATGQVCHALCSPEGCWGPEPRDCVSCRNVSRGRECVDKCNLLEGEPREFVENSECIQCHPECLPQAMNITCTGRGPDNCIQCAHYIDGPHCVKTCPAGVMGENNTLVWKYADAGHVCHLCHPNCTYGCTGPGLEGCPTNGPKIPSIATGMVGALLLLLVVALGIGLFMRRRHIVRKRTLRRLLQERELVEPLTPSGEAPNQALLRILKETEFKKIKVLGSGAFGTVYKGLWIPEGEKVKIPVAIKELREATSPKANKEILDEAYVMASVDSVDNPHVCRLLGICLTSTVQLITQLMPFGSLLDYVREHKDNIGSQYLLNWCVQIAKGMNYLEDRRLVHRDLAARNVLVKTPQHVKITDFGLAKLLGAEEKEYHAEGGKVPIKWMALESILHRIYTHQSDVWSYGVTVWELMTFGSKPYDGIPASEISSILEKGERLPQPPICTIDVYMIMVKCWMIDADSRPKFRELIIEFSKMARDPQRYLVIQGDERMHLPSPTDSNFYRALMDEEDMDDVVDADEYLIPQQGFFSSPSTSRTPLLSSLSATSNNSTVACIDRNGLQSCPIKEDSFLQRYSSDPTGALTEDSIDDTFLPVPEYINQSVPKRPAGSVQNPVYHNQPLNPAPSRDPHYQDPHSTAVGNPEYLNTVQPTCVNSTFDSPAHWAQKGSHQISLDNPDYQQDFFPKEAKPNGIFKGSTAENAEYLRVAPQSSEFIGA
Sequence of Ba/F3-EGFR L861Q cells (P00533 whole entry L861Q): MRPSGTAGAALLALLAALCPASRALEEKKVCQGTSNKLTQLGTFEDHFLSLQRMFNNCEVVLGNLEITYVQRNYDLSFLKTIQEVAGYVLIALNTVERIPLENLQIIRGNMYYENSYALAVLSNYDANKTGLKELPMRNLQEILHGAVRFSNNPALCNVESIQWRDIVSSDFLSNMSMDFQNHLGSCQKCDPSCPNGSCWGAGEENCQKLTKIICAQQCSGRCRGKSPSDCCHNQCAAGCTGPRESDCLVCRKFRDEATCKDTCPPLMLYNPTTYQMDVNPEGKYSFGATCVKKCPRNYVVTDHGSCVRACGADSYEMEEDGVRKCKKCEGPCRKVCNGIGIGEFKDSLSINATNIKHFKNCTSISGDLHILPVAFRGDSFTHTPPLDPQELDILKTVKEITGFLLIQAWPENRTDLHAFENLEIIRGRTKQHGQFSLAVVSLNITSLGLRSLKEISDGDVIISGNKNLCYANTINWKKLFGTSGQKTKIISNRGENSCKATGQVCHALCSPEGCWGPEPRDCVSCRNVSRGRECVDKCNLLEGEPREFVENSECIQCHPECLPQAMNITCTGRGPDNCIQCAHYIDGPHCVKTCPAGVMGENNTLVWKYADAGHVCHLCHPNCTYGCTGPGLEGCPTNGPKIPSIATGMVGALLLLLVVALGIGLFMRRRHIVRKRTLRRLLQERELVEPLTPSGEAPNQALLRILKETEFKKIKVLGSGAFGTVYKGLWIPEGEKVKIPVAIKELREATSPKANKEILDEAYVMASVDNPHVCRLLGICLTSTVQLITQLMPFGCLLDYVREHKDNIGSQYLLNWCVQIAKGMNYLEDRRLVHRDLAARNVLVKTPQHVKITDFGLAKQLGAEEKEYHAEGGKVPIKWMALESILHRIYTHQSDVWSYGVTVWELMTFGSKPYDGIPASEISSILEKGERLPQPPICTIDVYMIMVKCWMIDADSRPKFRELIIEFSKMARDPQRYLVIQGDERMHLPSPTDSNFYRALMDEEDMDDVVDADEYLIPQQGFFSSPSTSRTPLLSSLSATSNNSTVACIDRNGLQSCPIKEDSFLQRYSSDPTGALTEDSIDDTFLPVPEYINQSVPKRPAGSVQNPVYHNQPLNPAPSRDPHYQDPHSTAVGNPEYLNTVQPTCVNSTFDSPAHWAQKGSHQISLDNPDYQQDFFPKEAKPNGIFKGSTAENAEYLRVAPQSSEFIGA
Sequence of Ba/F3-EGFR-E746_A750del cells (P00533 with tags, fused parts or gaps DEL746-750): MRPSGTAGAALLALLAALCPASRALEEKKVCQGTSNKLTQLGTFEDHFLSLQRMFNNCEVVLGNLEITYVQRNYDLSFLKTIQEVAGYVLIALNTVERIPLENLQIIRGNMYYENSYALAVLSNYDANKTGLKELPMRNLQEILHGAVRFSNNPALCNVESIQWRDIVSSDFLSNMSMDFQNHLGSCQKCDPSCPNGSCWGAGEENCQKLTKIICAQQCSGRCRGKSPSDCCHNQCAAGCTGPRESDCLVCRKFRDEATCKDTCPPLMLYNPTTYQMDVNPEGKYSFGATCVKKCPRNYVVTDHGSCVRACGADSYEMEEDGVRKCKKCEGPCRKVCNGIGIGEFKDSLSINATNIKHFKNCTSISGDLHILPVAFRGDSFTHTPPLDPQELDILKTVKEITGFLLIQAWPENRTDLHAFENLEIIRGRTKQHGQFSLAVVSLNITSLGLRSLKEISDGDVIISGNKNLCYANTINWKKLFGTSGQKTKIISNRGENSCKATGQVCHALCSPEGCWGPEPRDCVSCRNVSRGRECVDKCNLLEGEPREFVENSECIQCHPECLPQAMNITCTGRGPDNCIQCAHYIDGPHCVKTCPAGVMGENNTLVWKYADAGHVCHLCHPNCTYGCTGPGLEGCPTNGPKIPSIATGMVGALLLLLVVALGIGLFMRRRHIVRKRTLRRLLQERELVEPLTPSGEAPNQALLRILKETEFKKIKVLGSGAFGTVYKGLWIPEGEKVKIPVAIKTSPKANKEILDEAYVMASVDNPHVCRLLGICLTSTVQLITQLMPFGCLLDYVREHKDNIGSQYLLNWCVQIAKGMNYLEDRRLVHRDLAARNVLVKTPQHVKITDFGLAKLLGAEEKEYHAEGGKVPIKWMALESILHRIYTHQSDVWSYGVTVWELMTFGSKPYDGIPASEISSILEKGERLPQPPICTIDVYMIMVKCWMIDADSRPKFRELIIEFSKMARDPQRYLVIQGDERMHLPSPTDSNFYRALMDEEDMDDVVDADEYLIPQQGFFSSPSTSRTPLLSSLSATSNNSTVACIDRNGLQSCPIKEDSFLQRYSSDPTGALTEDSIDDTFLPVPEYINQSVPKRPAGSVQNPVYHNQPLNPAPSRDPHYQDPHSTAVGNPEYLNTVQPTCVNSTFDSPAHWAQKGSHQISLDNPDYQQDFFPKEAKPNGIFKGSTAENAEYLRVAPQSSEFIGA

What is called IC50 is the concentration at which inhibition is half-maximal. For the compound `COc1c(Cl)cccc1Nc1c(-c2ccncc2OC[C@@H]2COCCO2)[nH]c2c1C(=O)NCC2` (single isomer, unassigned) [Example 2], the IC50 is 0.673 nM in the experiment with PC9 cells (EGFRex19del) and under 3 nM in experiment [4]. In addition, the GI50 was 8.22 nM in experiment [1]; 0.525 nM on Ba/F3-EGFR-L858R cells; 0.22 nM in experiment [2]; under 0.158 nM in experiment [3]; 14.8 nM on Ba/F3-EGFR L861Q cells; 8.31 nM in experiment [5].

With `COc1c(Cl)cccc1Nc1c(-c2ccncc2OCC2COC(C)(C)CO2)[nH]c2c1C(=O)NCC2` (single isomer, unassigned) [Example 32, 3-(3-chloro-2-methoxyanilino)-2-{3-[(5,5-dimethyl-1,4-dioxan-2-yl)methoxy]pyridin-4-yl}-1,5,6,7-tetrahydro-4H-pyrrolo[3,2-c]pyridin-4-one], the concentration for half-maximal inhibition (IC50) in the experiment with PC9 cells (EGFRex19del) was 1.7 nM; in experiment [4] it was under 3 nM. The GI50 in experiment [1] is 15.8 nM; on Ba/F3-EGFR-L858R cells, 1.06 nM; in experiment [2], 0.511 nM; in experiment [3], 2.89 nM; at Ba/F3-EGFR L861Q cells it was 17.4 nM; in experiment [5], 16.7 nM.

Consider `O=C1NCCc2[nH]c(-c3ccncc3OCC3COCCO3)c(Nc3cccc(Cl)c3Cl)c21` (single isomer, unassigned) [Example 8, 3-(2,3-dichloroanilino)-2-{3-[(1,4-dioxan-2-yl)methoxy]pyridin-4-yl}-1,5,6,7-tetrahydro-4H-pyrrolo[3,2-c]pyridin-4-one], for which the IC50 was 0.738 nM in the experiment on PC9 cells (EGFRex19del) and under 3 nM in experiment [4]. The GI50 in experiment [1] was 14.6 nM; at Ba/F3-EGFR-L858R cells, 0.701 nM; in experiment [2], 0.247 nM; in experiment [3], under 0.158 nM; on Ba/F3-EGFR L861Q cells it was 13.7 nM; in experiment [5], 13.1 nM.

For `CCc1c(Cl)cccc1Nc1c(-c2ccncc2OC[C@@H]2CN(C)CCO2)[nH]c2c1C(=O)NCC2` [Example 56, 3-(3-chloro-2-ethylanilino)-2-(3-{[(2S)-4-methylmorpholin-2-yl]methoxy}pyridin-4-yl)-1,5,6,7-tetrahydro-4H-pyrrolo[3,2-c]pyridin-4-one], the IC50 with PC9 cells (EGFRex19del) is 1.74 nM; in experiment [4], under 3 nM. Also, the GI50 in experiment [1] came to 14 nM; on Ba/F3-EGFR-L858R cells, 1.34 nM; in experiment [2] it was 0.423 nM; in experiment [3], 0.892 nM; at Ba/F3-EGFR L861Q cells, 29.5 nM; in experiment [5], 13.5 nM.

With `COc1c(F)cccc1Nc1c(-c2ccncc2OCC2COCCO2)[nH]c2c1C(=O)NCC2` (single isomer, unassigned) [Example 5, 2-{3-[(1,4-dioxan-2-yl)methoxy]pyridin-4-yl}-3-(3-fluoro-2-methoxyanilino)-1,5,6,7-tetrahydro-4H-pyrrolo[3,2-c]pyridin-4-one], the GI50 came out at 37 nM in experiment [1]; 2.03 nM on Ba/F3-EGFR-L858R cells; 0.668 nM in experiment [2]; 0.739 nM in experiment [3]; 30.9 nM at Ba/F3-EGFR L861Q cells.

With `Cc1c(Cl)cccc1Nc1c(-c2ccncc2OC[C@@H]2CN(C)CCO2)[nH]c2c1C(=O)NCC2` [Example 42, 3-(3-chloro-2-methylanilino)-2-(3-{[(2S)-4-methylmorpholin-2-yl]methoxy}pyridin-4-yl)-1,5,6,7-tetrahydro-4H-pyrrolo[3,2-c]pyridin-4-one], the IC50 was 4.03 nM with PC9 cells (EGFRex19del) and under 3 nM in experiment [4]. The GI50 in experiment [1] was 19.3 nM; on Ba/F3-EGFR-L858R cells it was 1.51 nM; in experiment [2], 0.494 nM; in experiment [3], 0.486 nM; on Ba/F3-EGFR L861Q cells, 18.8 nM; in experiment [5], 13.2 nM.

In the case of `Cc1c(F)cccc1Nc1c(-c2ccncc2OCC2COCCO2)[nH]c2c1C(=O)NCC2` (single isomer, unassigned) [Example 48, 2-[3-(1,4-dioxan-2-ylmethoxy)-4-pyridyl]-3-(3-fluoro-2-methyl-anilino)-1,5,6,7-tetrahydropyrrolo[3,2-c]pyridin-4-one], the half-maximal inhibitory concentration (IC50) with PC9 cells (EGFRex19del) was 3.4 nM; in experiment [4] it was under 3 nM. Besides, the GI50 at Ba/F3-EGFR-L858R cells was 2.36 nM; in experiment [2] it was 0.4 nM and 0.776 nM; in experiment [3], 1.43 nM; on Ba/F3-EGFR L861Q cells it was 39.7 nM; in experiment [5], 39.8 nM.

Regarding `Cc1c(Cl)cccc1Nc1c(-c2ccncc2OC[C@H]2COCCO2)[nH]c2c1C(=O)NCC2` (single isomer, unassigned) [Example 50], the values for the IC50 (with PC9 cells (EGFRex19del); in experiment [4]) were 6.82 nM and under 3 nM, respectively. The GI50 in experiment [1] was determined as 26.7 nM; at Ba/F3-EGFR-L858R cells, 1.07 nM; in experiment [2], 0.348 nM; in experiment [3] it was 1.1 nM; on Ba/F3-EGFR L861Q cells, 24 nM; in experiment [5] it was 10.3 nM.

For the compound `COc1c(F)cccc1Nc1c(-c2ccncc2OC[C@@H]2COCCN2C)[nH]c2c1C(=O)NCC2` [Example 20, 3-(3-fluoro-2-methoxyanilino)-2-(3-{[(3S)-4-methylmorpholin-3-yl]methoxy}pyridin-4-yl)-1,5,6,7-tetrahydro-4H-pyrrolo[3,2-c]pyridin-4-one], the results for the IC50 (with PC9 cells (EGFRex19del); in experiment [4]) were 2.68 nM and under 3 nM, respectively. The figures for the GI50 in experiment [1], in experiment [2] and in experiment [5] were 12.2 nM, 0.349 nM and 23.5 nM, respectively.

In the case of `Cc1c(Cl)cccc1Nc1c(-c2ccncc2OCC2COC(C)(C)CO2)[nH]c2c1C(=O)NCC2` (single isomer, unassigned) [Example 46, 3-(3-chloro-2-methyl-anilino)-2-[3-[(5,5-dimethyl-1,4-dioxan-2-yl)methoxy]-4-pyridyl]-1,5,6,7-tetrahydropyrrolo[3,2-c]pyridin-4-one], the IC50 was 2.89 nM in the experiment on PC9 cells (EGFRex19del) and under 3 nM in experiment [4]. In addition, the GI50 was found to be 0.957 nM at Ba/F3-EGFR-L858R cells, 1.05 nM in experiment [3], 15.8 nM on Ba/F3-EGFR L861Q cells and 11 nM in experiment [5].
